Measured values reported in publication PMC8623398, “Investigation of the Mechanisms of Cytotoxic Activity of 1,3-Disubstituted Thiourea Derivatives” (Pharmaceuticals, 2021).

Experiments:
HaCaT cells = assay: MTT assay, HaCaT normal cells; format: cell-based, human; settings: 72 h
Experimental: (§1) As a first step in assessing their cytotoxic properties, all thioureas of the series were assayed against four human carcinoma cell lines, such as SW480 (primary colon cancer), SW620 (metastatic colon cancer), PC3 (metastatic prostate cancer), and K-562 (chronic myelogenous leukemia), as well as against the normal cell line HaCaT (immortalized human keratinocytes). Table 1 lists the compound concentrations that produced 50% of growth inhibition (IC50, μM), generated by the MTT method, in comparison with two commonly used chemotherapeutic agents, doxorubicin and cisplatin.
(§2) The human primary (SW480), metastatic (SW620) colon cancer, metastatic prostate cancer (PC3), chronic myelogenous leukemia (K-562), and human immortal keratinocyte (HaCaT) cell lines were purchased from the American Type Culture Collection (ATCC, Rockville, MD, USA). The cells were cultured in medium according to protocols (MEM for SW480 and SW620, RPMI 1640 for PC3 and K-562, and DMEM for HaCaT cells), supplemented with 10% FBS, penicillin (100 U/mL) and streptomycin (100 μg/mL), and cultured in a 37 °C/5% CO2 humidified incubator. The cells were cultured until appropriate confluence was achieved (80–90%). Next, they were harvested by treatment with 0.25% trypsin (Gibco Life Technologies, Waltham, MA, USA) excluding the non-adherent K-562 cell line and used for studies.
(§3) Cells without the studied compounds in medium were used as a control.
(§4) The cell viability was assessed by determination of MTT salt [3-(4,5-dimethylthiazol-2-yl)-2,5-diphenyltetrazoliumbromide] conversion by mitochondrial dehydrogenase. The MTT assay was performed as previously described. Alternatively, non-adherent leukemic cells were centrifuged in a microplate centrifuge (400× g, 5 min) during the collection stages. Experiments were repeated three times. Cell viability was presented as a percent of MTT reduction in the treated cells versus the control cells. The number of viable cells cultured without the studied compounds was assumed as 100%. A decreased relative MTT level indicated decreased cell viability. Thiourea compounds with the highest cytotoxic potential assessed by MTT determination (with the lowest IC50) were chosen for subsequent assessments of cytotoxicity mechanisms.

SW480 cells = assay: MTT assay, SW480; format: cell-based, human; settings: 50% growth inhibition
Experimental: as §1, §2, §3, §4

PC3 cells = assay: MTT assay, PC3; format: cell-based; settings: Homo sapiens, PC-3, 72 h, 50% growth inhibition
Experimental: as §1, §2, §3, §4

SW620 cells = assay: MTT assay, SW620; format: cell-based, human; settings: 50% growth inhibition
Experimental: as §1, §2, §3, §4

K-562 cells = assay: MTT assay, K562; format: cell-based, human; settings: 50% growth inhibition
Experimental: as §1, §2, §3, §4

[1] = system: SW480, SW620, PC3, K-562 cells; assay: MTT assay, summary over cancer cell lines; format: cell-based; settings: Homo sapiens, 72 h, depending on the tumor line, read-out: IC50 (range or bound over cancer cell lines)
Experimental: as §1, §3, §4

melting point [°C]	IC50 (SW480 cells; Homo sapiens, SW480, 72 h) [µM]	IC50 (PC3 cells) [µM]	IC50 (SW620 cells; Homo sapiens, SW-620, 72 h) [µM]	IC50 (K-562 cells; Homo sapiens, K562, 72 h) [µM]	IC50 [1] [µM]	Structure (SMILES)	IC50 (HaCaT cells; Homo sapiens, HaCaT) [µM]	IC50 (HaCaT cells) [µM]	IC50 (SW480 cells; 72 h) [µM]	IC50 (SW620 cells; 72 h) [µM]	IC50 (K-562 cells; 72 h) [µM]
173 to 175	> 100	17.1 ± 0.57	30.1 ± 9.74	76.5 ± 4.57	–	FC(F)(F)c1cccc(NC(=S)Nc2ccccc2C(F)(F)F)c1 [Compound 7, 1-[2-(trifluoromethyl)phenyl]-3-[3-(trifluoromethyl)phenyl]thiourea]	65.7 ± 3.83	–	–	–	–
163 to 165	7.3 ± 0.89	51.8 ± 3.19	23.2 ± 4.07	52.5 ± 2.14	≤ 10	Cc1c(Cl)cccc1NC(=S)Nc1cccc(C(F)(F)F)c1 [Compound 5, 1-(3-chloro-2-methylphenyl)-3-[3-(trifluoromethyl)phenyl]thiourea]	55.6 ± 1.74	–	–	–	–
–	25.3 ± 8.53	26.7 ± 3.95	38.2 ± 3.1	23.8 ± 0.45	23.8 to 38.2	FC(F)(F)c1cccc(NC(=S)NCCc2ccccc2)c1 [Compound 12, 1-(2-phenylethyl)-3-[3-(trifluoromethyl)-phenyl]thiourea]	55.4 ± 1.08	–	–	–	–
–	–	–	–	–	–	N.N.[Cl][Pt][Cl] [Cisplatin, reference compound]	–	6.3 ± 0.7	10.4 ± 0.9	6.7 ± 1.1	8.2 ± 4.08
–	41.5 ± 4.46	76.6 ± 4.7	16.2 ± 4.08	74.2 ± 6.82	–	FC(F)(F)c1cccc(NC(=S)Nc2ccc(Br)cc2)c1 [Compound 11, 1-(4-bromophenyl)-3-[3-(trifluoromethyl)phenyl]thiourea]	17.2 ± 0.64	–	–	–	–
–	22.5 ± 0.1	10.5 ± 2.52	14 ± 1.73	35.9 ± 0.07	≤ 10	FC(F)(F)c1cccc(NC(=S)Nc2cccc(Cl)c2Cl)c1 [Compound 4, 1-(2,3-dichlorophenyl)-3-[3-(trifluoromethyl)phenyl]thiourea]	13.9 ± 1.7	–	–	–	–
–	12.7 to 15.6	65.9 ± 10.5	22.1 ± 4.36	40.3 ± 3.88	–	Cc1ccc(Cl)cc1NC(=S)Nc1cccc(C(F)(F)F)c1 [Compound 6, 1-(5-chloro-2-methylphenyl)-3-[3-(trifluoromethyl)phenyl]thiourea]	14.5 ± 1.08	–	15.6 ± 4.1	–	–
–	20.6 ± 3.59	66.2 ± 4.47	18.7 ± 5.92	10.2 to 12.9	–	N#Cc1ccc(NC(=S)Nc2cccc(C(F)(F)F)c2)cc1 [Compound 10, 1-(4-cyanophenyl)-3-[3-(trifluoromethyl)-phenyl]thiourea]	50.1 ± 4.89	–	–	–	12.9 ± 4.33
–	0.8 ± 0.1	0.3 ± 0.12	0.3 ± 0.08	0.2 ± 0.1	–	COc1cccc2c1C(=O)c1c(O)c3c(c(O)c1C2=O)C[C@@](O)(C(=O)CO)C[C@@H]3O[C@H]1C[C@H](N)[C@H](O)[C@H](C)O1 [Doxorubicin, reference compound]	0.3 ± 0.11	–	–	–	–
